Measured values published in patent publication US8673964B2, “Use of drug combinations for treating insulin resistance” (DiaMedica Inc., priority 2004, dated 2014).
Where “and” joins values, the source holds several entries; their conditions need not be identical. Identical values can stand only once.

Tests used:
sucrose fed rats = experiment: Rapid insulin sensitivity test (RIST): meal induced insulin sensitization in control diet and sucrose fed rats; format: in vivo, Sprague Dawley rats; settings: individual animals
Method: Animal Groups—Male Sprague Dawley rats having a starting weight of ≧220.0 g (Charles River, St. Constant, Quebec, Canada) were fed a normal rat chow diet and regular tap water, with and without the exposure to a 35% liquid sucrose solution for a 2 week period. Six groups of animals were established under the following treatments: […] (2) control diet, bethanechol (0.5 μg/kg ipv) and N-acetyl-L-cysteine (200 mg/kg) treatment (n=8); (3) control diet, bethanechol (0.5 μg/kg ipv) (n=5); (4) control diet, N-acetyl-L-cysteine (200 mg/kg) (n=4); (5) sucrose diet, saline treatment (n=4); (6) sucrose diet, bethanechol (0.5 μg/kg ipv) and N-acetyl-L-cysteine (200 mg/kg) treatment (n=5); (7) sucrose diet, bethanechol (0.5 μg/kg ipv) (n=6); and (8) sucrose diet, N-acetyl-L-cysteine (200 mg/kg) (n=3). Methodology—All animals are 24 hour fasted. The animals are prepared using the standard RIST surgical preparation. The rats are anaesthetized with an intraperitoneal injection of sodium pentobarbital (65 mg kg-1; Somnotol, MTC Pharmaceuticals, Ont). […] The rats are placed on a temperature-controlled surgical table (Harvard Apparatus, Kent, England) and rectal temperature is monitored and held at 37-37.5° C. Spontaneous respiration is allowed through a tracheal tube. An arterial-venous shunt is established, as previous described (Lautt W W et al. Can J Physiol Pharmacol. 1998; 76 (12): 1080-6), for monitoring mean arterial blood pressure (MAP), blood glucose level and for drug delivery. Briefly, two catheters (polyethylene tubing PE60), one inserted into the right femoral artery and the other into the right femoral vein, are connected to the two openings of a three way vascular circuit consisting of a T tube connected with silicon tubing. The third opening of the circuit is connected to a pressure transducer for the recording of the shunt pressure which, when the silicon tubing toward the venous side of the circuit is closed by clamping, represented the systemic arterial blood pressure. Blood samples are taken from the arterial side of the shunt for the glucose measurement. Flowing blood within the shunt assures the real time measurement of the blood glucose concentration, which is essential for the euglycemic clamp test as mentioned below. An infusion line is inserted into the venous side of the loop for drug delivery. Another infusion line connected to the jugular vein is established for glucose infusion. Animals are heparinized (100 IU·kg-1) to prevent clotting in the vascular loop. […] A control RIST is performed as previously described (Lautt W W et al. Can J Physiol Pharmacol. 1998; 76 (12): 1080-6). […] The baseline glucose levels are then determined by samples taken at 5-min intervals and continued until three successive stable determinations were made. […]

[1] = system: Rats with Insulin Resistance Produced by Hepatic Denervation; experiment: RIST in rats with insulin resistance produced by hepatic denervation; format: in vivo

CC(C[N+](C)(C)C)OC(N)=O (stereo not shown) [Bethanechol, bethanechol] was tested, and the “percent potentation of RIST as compared to control” value (“percent potentation of RIST” for short) (sucrose fed rats; Control Diet, bethanechol 0.5 μg/kg ipv alone, listed as BCH) was 9.06% and 15.19% and 35.62% and 33.87% and 60.33%, the “percent potentation of RIST” value (sucrose fed rats; Sucrose Diet, bethanechol 0.5 μg/kg ipv alone, listed as BCH) was 45.59% and 13.22% and −13.22% and 14.22% and 7.71% and 22.36% and the “RIST index after surgical hepatic denervation” value (from here on “RIST index”) ([1]; bethanechol infusion into the portal vein 2.5 mg/kg/min from 10 minutes prior to insulin, entire test period) was “reversal of the insulin resistance”.
In the case of CC(=O)N[C@@H](CS)C(=O)O [NAC, N-acetyl-L-cysteine], the “percent potentation of RIST” value (sucrose fed rats; Control Diet, N-acetyl-L-cysteine 200 mg/kg alone) is reported as 33.5% and 27.39% and 57.25% and 1.89%, the “percent potentation of RIST” value (sucrose fed rats; Sucrose Diet, N-acetyl-L-cysteine 200 mg/kg alone) is reported as 3% and −13.85% and −2.63% and the “RIST index” value ([1]; NAC (200 mg/mL) infusion into the portal vein 0.1 mL/min for 2 minutes) is reported as “reversal of the insulin resistance”.
For [NH-]c1c[n+](N2CCOCC2)no1 [SIN-1, 3-morpholinosyndnonimine], the “RIST index” value ([1]; SIN-1 infusion into the portal vein 10.0 mg/kg/min for 2 minutes) was “reversal of the insulin resistance”.
